Data as given in patent US11504367B2, “Compounds and methods for treating oxalate-related diseases” (OxaluRx, Inc., priority 2019, dated 2022).

What was measured:
[1] = molecular target: recombinant full-length human hydroxyacid oxidase 1 (HAO1), the equivalents of hGOX (Homo sapiens (Human), UniProt Q9UJM8); test: In-vitro human glycolate oxidase (hGOX) assay (Amplex red fluorescence); assay type: biochemical; details: 6 nM recombinant human GO, 85 μM glycolate, 10 min preincubation
Method in brief: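 Activity was read as Amplex Red fluorescence (560/590 nm), with 50 μM reagent added after a 10 min room-temperature incubation. The enzyme, full-length human HAO1, was in pH 7.4 HEPES buffer containing KCl, NaCl, MgCl2 and 0.01% Triton X-100.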

[2] = In-vivo pharmacokinetic evaluation (exposure, AUC fold-over Example 1); details: male CD-1 mice, 10 mg/kg oral gavage in 20% (2-Hydroxypropyl)-β-cyclodextrin, plasma at 0.5, 2 and 6 hours post-dose; AUC expressed as fold-over Example 1
Procedure: In-vivo exposure of test compounds was determined in 5-6 week old male CD-1 mice. Mice (n=2/compound) received 10 mg/kg of each compound formulated in 20% (2-Hydroxypropyl)-β-cyclodextrin (10 μL/g) by oral gavage. At 0.5 hours, 2 hours, and 6 hours post-dose, blood samples were collected from the submandibular vein using EDTA as an anticoagulant and stored on ice. Plasma samples were obtained by centrifugation at 4° C. and were analyzed immediately or stored at −20° C. until analysis. Compounds were extracted from mouse plasma with acetonitrile and quantified by LC-MS-MS in the negative ion mode using a standard curve.

[3] = Alternate plasma stability assay; assay type: in vitro ADME, human, dog, mouse; details: 5 μM
Procedure: Plasma stability. Stock compounds were prepared for testing the stability in human (BioIVT, #BRH1589665), dog (BioIVT, #BGL102122) and mouse (BioIVT, #MSE37887) plasma. 1 mM test compound working solution was prepared in DMSO. A one mM propantheline working solution was prepared in acetonitrile. Propantheline was used as a positive control for human, dog, and mouse plasma in this assay.
Plasma (398 μL) for each compound was added into an incubation plate, and the plate was pre-warmed for 15 minutes at 37° C. The reaction was initiated upon addition of 2 μL of 1 mM working solution (test compounds or control compound) to the plasma to reach a final concentration of 5 μM. The reaction was incubated at 37° C. Aliquots of 50 μL were taken from the reaction samples at 0 and 60 minutes. Adding 450 μL cold acetonitrile containing internal standards stopped the reaction. Once the reaction was stopped, the samples were vortexed for 10 minutes, followed by centrifugation at 3,220 g for 40 minutes to precipitate proteins. The supernatant (100 μL) was transferred to a new plate and diluted with ultrapure water according to the LC-MS signal response and peak shape. Samples were analyzed by LC-MS/MS.

Chain of recombinant full-length human hydroxyacid oxidase 1 (HAO1), the equivalents of hGOX (Q9UJM8 whole entry): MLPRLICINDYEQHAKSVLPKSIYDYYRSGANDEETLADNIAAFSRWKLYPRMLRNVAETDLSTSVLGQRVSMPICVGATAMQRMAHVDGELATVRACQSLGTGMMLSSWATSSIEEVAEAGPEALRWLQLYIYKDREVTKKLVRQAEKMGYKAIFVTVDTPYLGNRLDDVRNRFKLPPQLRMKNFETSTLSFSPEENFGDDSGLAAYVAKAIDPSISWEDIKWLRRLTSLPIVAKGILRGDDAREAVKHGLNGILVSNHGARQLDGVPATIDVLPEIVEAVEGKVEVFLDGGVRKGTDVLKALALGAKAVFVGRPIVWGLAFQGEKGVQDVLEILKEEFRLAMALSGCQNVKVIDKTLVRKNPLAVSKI

Row | Structure (SMILES) | IC50 [1] | AUC Fold over Ex. 1 [2] | plasma stability half-life (compared with Example 1) [3]
1 | O=C(O)c1nn[nH]c1Oc1cccc(C#CC2CC2)c1 [Example 21, 5-(3-(2-Cyclopropylethynyl)phenoxy)-1H-1,2,3-triazole-4-carboxylic Acid] | 9 nM | 2.5 | 
2 | O=C(O)c1nn[nH]c1Oc1ccc(C#CC2CCC2)cc1 [Example 24, 5-(4-(2-Cyclobutylethynyl)phenoxy)-1H-1,2,3-triazole-4-carboxylic Acid] | 16 nM | 0.3 | 
3 | O=C(O)c1nn[nH]c1Oc1cccc(C#CC2CCC2)c1 [Example 25, 5-(3-(2-Cyclobutylethynyl)phenoxy)-1H-1,2,3-triazole-4-carboxylic Acid] | 18 nM | 2.9 | 
4 | O=C(O)c1nn[nH]c1Oc1ccc(C#CC2CCCC2)cc1 [Example 28, 5-(4-(2-Cyclopentylethynyl)phenoxy)-1H-1,2,3-triazole-4-carboxylic Acid] | 18 nM | 0.3 | 
5 | O=C(O)c1nn[nH]c1Oc1cccc(C#CC2CCCC2)c1 [Example 29, 5-(3-(2-Cyclopentylethynyl)phenoxy)-1H-1,2,3-triazole-4-carboxylic Acid] | 10 nM | 2.5 | 
6 | O=C(O)c1nn[nH]c1Oc1cccc(C#CC2CCOCC2)c1 [Example 41, 5-(3-(2-(Tetrahydro-2H-pyran-4-yl)ethynyl)phenoxy)-1H-1,2,3-triazole-4-carboxylic Acid] | 13 nM | 0.1 | 
7 | O=C(O)c1nn[nH]c1Oc1cccc(C#Cc2ccccc2)c1 [Example 139, 5-(3-(2-Phenylethynyl)phenoxy)-1H-1,2,3-triazole-4-carboxylic Acid] | 10 nM | 1.1 | 
8 | CCCC#Cc1ccc(Oc2[nH]nnc2C(=O)O)cc1 [Example 299, 5-(4-(Pent-1-ynyl)phenoxy)-1H-1,2,3-triazole-4-carboxylic Acid] | 15 nM | 0.9 | 
9 | CCCC#Cc1cccc(Oc2[nH]nnc2C(=O)O)c1 [Example 300, 5-(3-(Pent-1-ynyl)phenoxy)-1H-1,2,3-triazole-4-carboxylic Acid] | 9 nM | 2.5 | 
10 | O=C(O)c1nn[nH]c1Oc1ccc(C#CCC2CC2)cc1 [Example 301, 5-(4-(3-Cyclopropylprop-1-ynyl)phenoxy)-1H-1,2,3-triazole-4-carboxylic Acid] | 15 nM | 0.7 | 
11 | CCC#Cc1ccc(Oc2[nH]nnc2C(=O)O)cc1 [Example 303, 5-(4-(But-1-ynyl)phenoxy)-1H-1,2,3-triazole-4-carboxylic Acid] | 36 nM | 1.5 | 
12 | CCC#Cc1cccc(Oc2[nH]nnc2C(=O)O)c1 [Example 304, 5-(3-(But-1-ynyl)phenoxy)-1H-1,2,3-triazole-4-carboxylic Acid] | 12 nM | 1.6 | 
13 | O=C(O)c1nn[nH]c1Oc1ccc(C#CCC(F)(F)F)cc1 [Example 305, 5-(4-(4,4,4-Trifluorobut-1-ynyl)phenoxy)-1H-1,2,3-triazole-4-carboxylic Acid] | 18 nM | 0.3 | 
14 | O=C(O)c1nn[nH]c1Oc1cccc(C#CCC(F)(F)F)c1 [Example 306, 5-(3-(4,4,4-Trifluorobut-1-ynyl)phenoxy)-1H-1,2,3-triazole-4-carboxylic Acid] | 16 nM | 0.7 | 
15 | O=C(O)c1nn[nH]c1Oc1cccc(C#CCC2CCC2)c1 [Example 345, 5-(3-(3-Cyclobutylprop-1-ynyl)phenoxy)-1H-1,2,3-triazole-4-carboxylic Acid] | 8 nM | 2.6 | 
16 | O=C(O)c1nn[nH]c1Oc1cccc(C#CC2CCC(F)(F)CC2)c1 [Example 347, 5-(3-(2-(4,4-Difluorocyclohexyl)ethynyl)phenoxy)-1H-1,2,3-triazole-4-carboxylic Acid] | 21 nM | 0.7 | 
17 | O=C(O)c1nn[nH]c1Oc1cccc(C#CCc2ccc(F)cc2)c1 [Example 354, 5-(3-(3-(4-Fluorophenyl)prop-1-ynyl)phenoxy)-1H-1,2,3-triazole-4-carboxylic Acid] | 5 nM | 2.4 | 

More lines, in order of falling IC50 [1], values ahead:

Row | IC50 [1] | AUC Fold over Ex. 1 [2] | plasma stability half-life (compared with Example 1) [3] | Structure (SMILES)
18 | 5 nM | 0.2 |  | COc1ccc(C#Cc2cccc(Oc3[nH]nnc3C(=O)O)c2)cn1 [Example 284, 5-(3-(2-(6-Methoxypyridin-3-yl)ethynyl)phenoxy)-1H-1,2,3-triazole-4-carboxylic Acid]
19 | 5 nM | 0.1 |  | Cc1cccc(C#Cc2ccc(Oc3[nH]nnc3C(=O)O)cc2)n1 [Example 293, 5-(4-(2-(6-Methylpyridin-2-yl)ethynyl)phenoxy)-1H-1,2,3-triazole-4-carboxylic Acid]
20 | 4 nM | 1.7 |  | O=C(O)c1nn[nH]c1Oc1cccc(C#Cc2cccc3cn[nH]c23)c1 [Example 324, 5-(3-(2-(1H-Indazol-7-yl)ethynyl)phenoxy)-1H-1,2,3-triazole-4-carboxylic Acid]
21 | 4 nM | 1.9 |  | O=C(O)c1nn[nH]c1Oc1cccc(C#CCC2CCCC2)c1 [Example 344, 5-(3-(3-Cyclopentylprop-1-ynyl)phenoxy)-1H-1,2,3-triazole-4-carboxylic Acid]
22 | 3 nM |  | similarly long or longer half-lives | CS(=O)(=O)c1ccc(C#Cc2ccc(Oc3[nH]nnc3C(=O)O)cc2)cc1 [Example 190, 5-(4-(2-(4-(Methylsulfonyl)phenyl)ethynyl)phenoxy)-1H-1,2,3-triazole-4-carboxylic Acid]
23 | 3 nM | 0.5 |  | COc1ccc(C#Cc2ccc(Oc3[nH]nnc3C(=O)O)cc2)cn1 [Example 282, 5-(4-(2-(6-Methoxypyridin-3-yl)ethynyl)phenoxy)-1H-1,2,3-triazole-4-carboxylic Acid]
24 | 3 nM | 0.2 |  | O=C(O)c1nn[nH]c1Oc1cccc(C#Cc2cccnc2)c1 [Example 312, 5-(3-(2-(Pyridin-3-yl)ethynyl)phenoxy)-1H-1,2,3-triazole-4-carboxylic Acid]
25 | 3 nM | 0.7 |  | O=C(O)c1nn[nH]c1Oc1cccc(C#CCC2CCCCC2)c1 [Example 346, 5-(3-(3-Cyclohexylprop-1-ynyl)phenoxy)-1H-1,2,3-triazole-4-carboxylic Acid]
26 | 2 nM | 0.3 |  | Cn1ncc2c(C#Cc3cccc(Oc4[nH]nnc4C(=O)O)c3)cccc21 [Example 315, 5-(3-(2-(1-Methyl-1H-indazol-4-yl)ethynyl)phenoxy)-1H-1,2,3-triazole-4-carboxylic Acid]
27 | 2 nM | 0.4 |  | O=C(O)c1nn[nH]c1Oc1cccc(C#Cc2nccs2)c1 [Example 342, 5-(3-(2-(Thiazol-2-yl)ethynyl)phenoxy)-1H-1,2,3-triazole-4-carboxylic Acid]
28 | 1 nM | 0.1 |  | Cn1cc(C#Cc2cccc(Oc3[nH]nnc3C(=O)O)c2)cn1 [Example 221, 5-(3-(2-(1-Methyl-1H-pyrazol-4-yl)ethynyl)phenoxy)-1H-1,2,3-triazole-4-carboxylic Acid]
29 | 1 nM | 0.3 |  | N#Cc1ccc(C#Cc2cc(Oc3[nH]nnc3C(=O)O)ccc2F)cc1 [Example 268, 4-(3-((4-Cyanophenyl)ethynyl)-4-fluorophenoxy)-1H-1,2,3-triazole-5-carboxylic Acid]
30 | 1 nM | 0.2 |  | Cc1ccc(C#Cc2cccc(Oc3[nH]nnc3C(=O)O)c2)cn1 [Example 295, 5-(3-(2-(6-Methylpyridin-3-yl)ethynyl)phenoxy)-1H-1,2,3-triazole-4-carboxylic Acid]
31 | 1 nM | 0.0 |  | O=C(O)c1nn[nH]c1Oc1cccc(C#Cc2ccc3[nH]ncc3c2)c1 [Example 307, 5-(3-(2-(1H-Indazol-5-yl)ethynyl)phenoxy)-1H-1,2,3-triazole-4-carboxylic Acid]
